# In publication PMC8776894 (Communications Biology, 2022):
# “And” between values parts separate entries of the source, which are not always exact repeats. Equal values may be shown once.
# Columns and labels:
# [1] = VK stability in plasma (HPLC); type: in vitro ADME; conditions: plasma (species not given), pH 7.4, 37 °C, 750 rpm, at 120 min; VK 0.735 mM (Fig. 1 legend 73.5 nM); HPLC-UV 215 nm, peak area relative to 0 min; at least triplicate
# Protocol: Proteolytic degradation of peptide-based drugs is generally considered as the main defect to limit systemic therapeutic applications. Therefore, high-performance liquid chromatography (HPLC) was used to assess the stability of VK in PBS or plasma at physiological pH (7.4) and temperature (37 °C). […] For neuropharmacology, crossing the BBB is a remarkable challenge, and VK was labeled with FITC in the N-terminus. FITC-labeled VK was then administered to stroke mice. After 30 min, these mice were imaged by an in vivo imaging system. […] Brains were collected at 0, 30, 60, 90, and 120 min and the distribution of VK was observed. […] To further evaluate whether VK was a cell-penetrating peptide, the oxygen-glucose deprivation/reoxygenation (OGD/R) model simulated I/R […] was established in HT22 hippocampal neuron cells and FITC-labeled VK was incubated for 120 min.
# VK in PBS or plasma was detected by quantifying the peak areas relative to the initial peak areas (0 min). All stability tests were performed at least in triplicate.
# MCAO/R mice [2] = assay: MRI of cerebral infarction after MCAO/R; type: in vivo, mouse; conditions: VK 300 i.p. at 0, 4, 22.5, 46.5 h, T2-weighted
# Protocol: After MCAO/R, mice were treated with VK ([…], i.p.) at 0, 4, 22.5, and 46.5 h. Mice were deeply anesthetized with 1.5% isoflurane in a mixture of 30% O2 and 69% N2O. The magnetic resonance imaging (MRI) experiments were performed on a horizontal bore 9.4 Tesla scanner operating on a Bruker Avance platform (Bruker 9.4 T Biospec). T2-weighted imaging was used to evaluate the infarct volume. Three mutually perpendicular images were obtained to localize the infarction site. Then, 13–15 T2-weighted axial slices (1 mm thick) covering the entire damage area (field of view = 30 × 30 mm, matrix size = 256 × 256, echo time^3 = 33 ms, repetition time[68] = 3500 ms) were acquired by a spin-echo pulse sequence to delineate anatomical details and calculate qualitative T2 maps[69].
# MCAO/R mice [3] = assay: Rotarod test; type: in vivo, mouse; conditions: VK 150 and 300 µg/kg i.p.
# Protocol: The mice were placed in a RotaRod Treadmill (Harvard Apparatus, LE8205) for adaptive training 3 days before MACO/R. The rotating rod was started and the speed was set to accelerate to 40 rpm within 5 min. The mice drop time was recorded as an indicator. The test was performed at 24 and 48 h after MCAO/R.
# MCAO/R mice [4] = assay: Grip test; type: in vivo, mouse; parameters: grip test (Fig.2g): unit not given here; conditions: for grip test (Fig.2g): individual animals
# Protocol: The grip strength (The Chatillon® DFE Digital Force Gauge DFX-050) was used to evaluate the effects of VK on muscular incoordination of mice. The forelimbs of the mice were placed on the test grid and the mice were gently pulled after the animals were grasped and the force value when the claws of the animals were recorded was the grip value. The test was performed at 24 and 48 h after MCAO/R.
# [5] = test system: MCAO/R mice, brain homogenate; assay: Biochemical kits, oxidative stress in brain (SOD, MDA, LPO, glutathione); type: in vivo, mouse; conditions: 48 h
# Protocol: […] The brain was collected, weighed, and placed in a homogenizer for homogenization. Using 0.9% normal saline (NS) as a homogenization medium, a 10% tissue homogenate was prepared, centrifuged at 3500 rpm for 10 min, and the supernatant was taken. […] Kits for ATP, glutamic acid, glutathione, lactic acid, LPO, MDA, and SOD were purchased from Nanjingjiancheng Bioengineering Institute, and were measured as previously described for specification.
# BV2 cells (OGD/R) = assay: qRT-PCR of proinflammatory mediators; type: cell-based, mouse; conditions: RT-PCR
# [6] = test system: IL-1β, TNF-α, IL-6, IL-8, IL-10 in ischemic cortex; assay: Cytokine ELISA in ischemic cortex; type: in vivo, mouse; conditions: MCAO/R mice, 48 h
# Protocol: Mice were decapitated under anesthesia at 48 h after MCAO/R. The IL-1β (Cat# 88-5019-88), TNF-α (Cat# 88-7324-22), IL-6 (Cat# 88-7064-88), and IL-8 (Cat# 88-8086-22) were purchased from Thermo Fisher Scientific. The levels of these proteins were measured by enzyme-linked immune sorbent assays (ELISA) kits, according to the manufacturer’s recommendations.
# [7] = test system: microglia in brain of MCAO/R mice; assay: IBA1 staining of microglia (IHC, immunofluorescence); type: in vivo, mouse
substance,measurement,setting,value
"Gly-Arg-Pro-Hyp-Gly-Phe-Ser-Pro-Phe-Arg-Ile-Asp [VK, Vespakinin-M]",degradation of VK in plasma,[1],completely degraded
same,"area of cerebral infarction, MRI",MCAO/R mice [2],reduced the area of cerebral infarction
same,"sensorimotor function, rotarod test",MCAO/R mice [3],improved functional performance and ameliorated the sensorimotor asymmetry
same,grip test (Fig.2g),MCAO/R mice [4]; VK 150 µg/kg i.p.,103 and 99.5 and 136 and 78 and 61.1 and 99 and 115.7
same,grip test (Fig.2g),MCAO/R mice [4]; VK 300 µg/kg i.p.,116.6 and 26 and 19.5 and 56.2 and 63.2 and 77 and 80.9
same,"sensorimotor function, grip test",MCAO/R mice [4]; VK 150 and 300 µg/kg i.p.,improved functional performance and ameliorated the sensorimotor asymmetry
same,"glutathione in brain, between groups",[5],no obvious difference
same,MDA and LPO content in brain cortex vs vehicle,[5]; VK 150 and 300 µg/kg,decreased content of MDA and LPO
same,SOD activity in brain cortex vs vehicle,[5]; VK 150 and 300 µg/kg,enhanced SOD activity
same,OGD/R-increased expression of proinflammatory cytokines in BV2 cells,BV2 cells (OGD/R),remarkably blocked these effects
same,IL-10 level in ischemic cortex vs vehicle,[6],increase in IL-10 levels
same,"IL-1β, TNF-α, IL-6 and IL-8 levels in cortex of the ischemic hemisphere vs vehicle",[6]; VK 150 and 300 µg/kg,"decreased IL-1β, TNF-α, IL-6, and IL-8 levels"
same,I/R-induced elevation of IBA1 expression in cerebral cortex,[7],greatly blunted
